Molecular target: T1, P2X purinoceptor 3 (Homo sapiens, UniProt P56373)
T1 sequence (P56373 whole entry): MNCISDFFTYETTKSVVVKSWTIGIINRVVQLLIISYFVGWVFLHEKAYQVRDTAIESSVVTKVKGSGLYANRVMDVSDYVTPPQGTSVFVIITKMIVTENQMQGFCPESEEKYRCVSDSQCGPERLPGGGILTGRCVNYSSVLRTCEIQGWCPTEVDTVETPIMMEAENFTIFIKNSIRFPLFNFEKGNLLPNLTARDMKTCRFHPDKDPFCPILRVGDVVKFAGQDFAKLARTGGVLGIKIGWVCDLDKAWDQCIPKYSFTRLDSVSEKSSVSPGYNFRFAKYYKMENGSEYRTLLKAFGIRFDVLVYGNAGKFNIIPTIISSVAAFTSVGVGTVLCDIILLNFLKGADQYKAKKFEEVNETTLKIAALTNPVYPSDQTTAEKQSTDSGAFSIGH

Row | Ki [nM] | Structure (SMILES)
1 | 406 | Nc1ncnc2c1ncn2[C@H]1CC[C@@H](COP(=O)(O)OP(=O)(O)OP(=O)(O)O)O1 [2',3'-Dideoxyadenosine Triphosphate (Ddatp)]
2 | 2610 | O=c1ccn([C@@H]2O[C@H](COP(=O)(O)OP(=O)(O)OP(=O)(O)O)[C@@H](O)[C@H]2O)c(=O)[nH]1 [({[({[5-(2,4-dioxo-1,2,3,4-tetrahydropyrimidin-1-yl)-3,4-dihydroxyoxolan-2-yl]methoxy}(hydroxy)phosphoryl)oxy](hydroxy)phosphoryl}oxy)phosphonic acid]
3 | 452 | Nc1ncnc2c1ncn2[C@@H]1O[C@H](COP(=O)(O)OP(=O)(O)O)[C@@H](O)[C@H]1O [ADP]
4 | 8.2 | CSc1nc(N)c2ncn([C@@H]3O[C@H](COP(=O)(O)OP(=O)(O)OP(=O)(O)O)[C@@H](O)[C@H]3O)c2n1 [ATP, 2-meS]
5 | 1670 | Nc1ncnc2c1ncn2C1OC(COP(=O)(O)OP(=O)(O)OP(=O)(O)OC2C(CO)OC(n3cnc4c(N)ncnc43)C2O)C(O)C1O (centres undefined) [CAS_3035419]
6 | > 10000 | CN(C(Cc1ccc(OS(=O)(=O)c2cccc3cnccc23)cc1)C(=O)N1CCN(c2ccccc2)CC1)S(=O)(=O)c1cccc2cnccc12 (centres undefined) [KN-62]
7 | 47.3 | Nc1ncnc2c1ncn2[C@@H]1O[C@H](COP(=O)(O)OP(=O)(O)OP(=O)(O)O)C[C@H]1O [NSC_0]
8 | 7.7 | Nc1ncnc2c1ncn2[C@@H]1O[C@H](COP(=O)(O)OP(=O)(O)OP(=O)(O)O)[C@@H](OC(=O)c2ccc(C(=O)c3ccccc3)cc2)[C@H]1O [NSC_0]

Continued, molecule first:

Row | Structure (SMILES) | Ki [nM]
9 | Nc1ncnc2c1ncn2[C@@H]1O[C@H](COP(=O)(O)OP(=O)(O)OP(=O)(O)O)[C@@H](O)[C@H]1O | 14.6
10 | Nc1ncnc2c1ncn2[C@H]1C[C@H](O)[C@@H](COP(=O)(O)OP(=O)(O)OP(=O)(O)O)O1 | 180
11 | Nc1c(S(=O)(=O)O)cc(Nc2ccc(Nc3nc(Cl)nc(Nc4ccccc4S(=O)(=O)O)n3)c(S(=O)(=O)O)c2)c2c1C(=O)c1ccccc1C2=O | 2530
12 | Nc1ncnc2c1ncn2[C@@H]1O[C@H](COP(=O)(O)CP(=O)(O)OP(=O)(O)O)[C@@H](O)[C@H]1O [({[({[5-(6-amino-9H-purin-9-yl)-3,4-dihydroxyoxolan-2-yl]methoxy}(hydroxy)phosphoryl)methyl](hydroxy)phosphoryl}oxy)phosphonic acid] | 9
13 | Nc1ncnc2c1ncn2[C@@H]1O[C@H](COP(=O)(O)OP(=O)(O)S)[C@@H](O)[C@H]1O (some centres undefined) [CAS_123848] | 297
14 | Nc1ncnc2c1ncn2[C@@H]1O[C@H](CO[P@](=O)(O)O[P@](=O)(O)OC[C@H]2O[C@@H](n3cnc4c(N)ncnc43)[C@H](O)[C@@H]2O)[C@@H](O)[C@H]1O [NSC_0] | > 10000
15 | Nc1ncnc2c1ncn2C1OC(COP(=O)(O)OP(=O)(O)OP(=O)(O)OP(=O)(O)OP(=O)(O)OP(=O)(O)OCC2OC(n3cnc4c(N)ncnc43)C(O)C2O)C(O)C1O (centres undefined) [NSC_123694] | 4.8
16 | Nc1ncnc2c1ncn2C1OC(COP(=O)(O)OP(=O)(O)OP(=O)(O)OP(=O)(O)OP(=O)(O)OCC2OC(n3cnc4c(N)ncnc43)C(O)C2O)C(O)C1O (centres undefined) [NSC_440210] | 10.4
17 | Nc1ncnc2c1ncn2C1OC(COP(=O)(O)OP(=O)(O)OP(O)(O)=S)C(O)C1O (centres undefined) [NSC_440317] | 40.3
18 | Nc1ncnc2c1ncn2[C@@H]1O[C@H](COP(=O)(O)OP(=O)(O)CP(=O)(O)O)[C@@H](O)[C@H]1O [adenylylmethylenediphosphonate] | 387
19 | Nc1ncnc2c1ncn2[C@@H]1O[C@H](COP(=O)(O)CP(=O)(O)O)[C@@H](O)[C@H]1O [alpha, beta-methyleneadenosine 5 -diphosphate] | > 10000

Source: BindingDB's records for doi:10.1124/jpet.103.064907 (Abbott Laboratories, 2004)
